{"source": "patent US20080299076A1", "about": "“Compunds and compositions that cause non-apoptotic cell death and uses thereof” (priority 2006, published 2008)", "key": {"[1]": {"system": "BJ-DRD cells", "assay": "Alamar Blue viability assay", "assay_type": "cell-based", "settings": "Homo sapiens; BJ-DRD (+RAS)", "description": "The engineered tumor cells make use of dominantly acting viral oncoproteins (LT and ST). These viral proteins are involved in cell transformation in specific forms of cancer, namely simian virus 40-induced malignant mesothelioma^134 and other viral oncogenes (E6 and E7) are involved in human papillomavirus-induced cervical carcinoma^135, and have been used to disrupt p53 and pRB function to transform cells in vitro and in vivo^136-138. The selectivity of erastin and the other compounds were further established in a cell line expressing dominant negative inhibitors of p53 and pRB not derived from viral elements. This cell line expresses (i) a truncated form of p53 (p53DD) that disrupts the tetramerization of endogenous p53, (ii) a CDK4^R24C mutant resistant to inhibition by p16INK4A and p15INK4B (the major negative regulators of CDK4) and (iii) cyclin D1. The effects of these RAS^V12-selective compounds at a range of concentrations were tested in these cells, BJ-TERT/p53^DD/CDK4^R24C/D1/ST/RAS^V12 (named BJ-DRD) cells. […] Thus, these compounds (including erastin) are effective in tumor cells transformed without viral proteins (other than ST).\nAlamar Blue metabolism: 10% Alamar Blue was added to assay plates, which were then incubated for an additional 16 hours. Red fluorescence, resulting from reduction of Alamar Blue, was detected on a Victor3 platereader (ex: 530, em: 590).\nTable 2. […]"}, "[2]": {"system": "CCRF-CEM parental cells", "assay": "Cell death in taxol/vinblastine resistance panel", "assay_type": "cell-based", "settings": "Homo sapiens", "experimental": "(§1) In certain embodiments, the sensitivity to erastin, can be tested in cell lines that are resistant to taxol and vinblastine. The sensitivity of CCRF-CEM parental, and taxol and vinblastine resistant derivative cells to erastin was tested. […] Erastin analogues can be tested to ensure their effectiveness in inducing cell death in tumor cell line which are resistant to taxol or vinblastin, or other ant-tumor agents."}, "[3]": {"system": "taxol resistant CCRF-CEM derivative cells", "assay": "Cell death in taxol/vinblastine resistance panel", "assay_type": "cell-based", "settings": "Homo sapiens", "experimental": "as §1"}, "[4]": {"system": "vinblastine resistant CCRF-CEM derivative cells", "assay": "Cell death in taxol/vinblastine resistance panel", "assay_type": "cell-based", "settings": "Homo sapiens", "experimental": "as §1"}, "[5]": {"assay": "Stability in human liver microsomes", "assay_type": "in vitro ADME", "settings": "after 1 hr", "experimental": "The stability of erastin in mouse and human liver microsomes and in mouse and human plasma was assessed. In both human and mouse liver microsomes, after 1 hr, ˜30% of erastin was converted to its primary metabolite (the O-de-ethylated product). In both human and mouse plasma, only ˜10% of erastin was lost after five hours. Thus, erastin has sufficient metabolic and plasma stability to be tested in vivo in mice."}, "[6]": {"system": "tumor cell lines", "assay": "Dose-response of panel of tumor cell lines to erastin", "assay_type": "cell-based", "experimental": "In certain aspects, the invention provides that erastin is lethal to tumor cells with activating mutations in proteins downstream of RAS proteins. Dose-response of 30 tumor cell lines to erastin was measured, and at least 50% inhibition of cell viability in 19 of the 30 tumor cell lines was formed. Numerous sarcoma-derived tumor cell lines were sensitive to erastin, consistent with the fact that erastin was discovered in an engineered tumor cell line created from human fibroblasts. Non-limiting examples include, HT1080 fibrosarcoma cells. HT1080 fibrosarcoma cells, which have a known activating mutation in NRAS, (Plattner, R. et al. Differential contribution of the ERK and JNK mitogen-activated protein kinase cascades to Ras transformation of HT1080 fibrosarcoma and DLD-1 colon carcinoma cells. Oncogene. 18: 1807-17 (1999)), were quite sensitive to erastin. In order to determine whether RAS-activated signaling was modulated in cell lines that respond to erastin, the phosphorylation status of ERK1/2 in 12 sarcoma cell lines with a range of sensitivities to erastin was evaluated. In certain aspects, the invention provides a non-zero correlation, such as for example, a correlation coefficient of 0.41, between ERK1/2 phosphorylation status and erastin sensitivity in these cell lines. […]"}, "[7]": {"system": "Hs51.T", "assay": "Response of tumor cell lines to erastin (dose-response)", "assay_type": "cell-based", "experimental": "(§2) Given that oncogenic RAS activates at least four downstream pathways, analysis was performed to identify which downstream effects were necessary for erastin sensitivity. In certain embodiments, the invention provides that erastin inhibits growth and kills genuine tumor cells with RAS mutations. In other embodiments, the invention provides measures of the dose-response of 29 tumor cell lines to erastin, wherein there is at least 50% inhibition of viability in 18 of the cell lines (Table 4). Numerous sarcoma-derived tumor cell lines were sensitive to erastin, consistent with the fact that erastin was discovered in an engineered tumor cell line created from human fibroblasts."}, "[8]": {"system": "HL-60", "assay": "Response of tumor cell lines to erastin (dose-response)", "assay_type": "cell-based", "experimental": "as §2"}, "[9]": {"system": "Calu-1 cells", "assay": "Sensitivity of Calu-1 lung carcinoma cells to erastin", "assay_type": "cell-based", "settings": "Homo sapiens; Calu-1 lung carcinoma cells with activating KRAS mutation", "experimental": "Erastin was discovered, e.g., in a screen for oncogenic-HRAS-selective lethal compounds. KRAS is more frequently mutated in human cancers than HRAS. Thus, whether erastin is selectively lethal to tumor cells harboring oncogenic KRAS was tested. Calu-1 is a lung carcinoma cell line (Calu-1) with an activating mutation in KRAS. In certain embodiments, Calu-1 cells were sensitive to erastin (IC50=5 μM). Two different lentiviral constructs were used to reduce expression of mutant KRAS.\n(Left panel) Calu-1 cells that had been infected with lentiviruses expressing shRNAs targeting GFP (as a control) or KRAS (targeting 19 nucleotides starting at nucleotide 269 or 509) were seeded in 6-well plates, treated with erastin and viability measured using Trypan Blue exclusion on a Beckman Vi-Cell. Error bars represent one SD. (Right panel) Western blot showing KRAS knockdown in Calu-1 cells. Top band=actin, Bottom band=KRAS. Calu-1 cells were infected with nothing (left lane), or lentiviruses containing shRNA constructs targeting GFP or KRAS. For KRAS, the shRNA was designed to match 19 nucleotides starting at the indicated nt."}}}
{"compound": "CCOc1ccccc1-n1c(C(C)N2CCN(C(=O)COc3ccc(Cl)cc3)CC2)nc2ccccc2c1=O", "note": "(stereo not drawn) [erastin, 2-(1-{4-[2-(4-Chloro-phenoxy)-acetyl]-piperazin-1-yl}-ethyl)-3-(2-ethoxy-phenyl)-3H-quinazolin-4-one]", "values": [{"measurement": "IC50", "setting": "[1]", "value": 2.5, "unit": "µg/mL"}, {"measurement": "IC50", "setting": "[2]", "value": 11, "unit": "µM"}, {"measurement": "IC50", "setting": "[3]", "value": 7, "unit": "µM"}, {"measurement": "IC50", "setting": "[4]", "value": 8, "unit": "µM"}, {"measurement": "converted to primary metabolite (O-de-ethylated product)", "setting": "[5]", "value": "~30", "unit": "%"}, {"measurement": "number of cell lines with at least 50% inhibition of viability", "setting": "[6]; of 29 tumor cell lines", "value": 18}, {"measurement": "number of cell lines with at least 50% inhibition of cell viability", "setting": "[6]; of 30 tumor cell lines", "value": 19}, {"measurement": "EC50", "setting": "[7]", "value": 12, "unit": "µM"}, {"measurement": "Max % killing", "setting": "[7]; Spindle cell sarcoma", "value": 88, "unit": "%"}, {"measurement": "Erastin Sensitivity (maximum percent killing, as fraction)", "setting": "[8]; HL 60", "value": 0.00}, {"measurement": "Max % killing", "setting": "[8]; HL-60, acute promyelocytic leukemia", "value": 0, "unit": "%"}, {"measurement": "IC50", "setting": "[9]", "value": 5, "unit": "µM"}]}
